{"source": "patent US20110152267A1", "about": "“Compositions and Methods for Treating Hyperproliferative Disorders” (Texas Tech University System, priority 2009, published 2011)", "type_in_all_cases": "cell-based, human", "key": {"[1]": {"tested_on": "A-549 lung adenocarcinoma cell line", "assay": "DIMSCAN cytotoxicity, fenretinide + L-threo-sphinganines 3:1 (Example B13)", "conditions": "96 h", "procedure": "(§1) Cytotoxicity Assay—Once again, cytotoxicity is determined using the DIMSCAN assay system (R. Proffitt et al., Cytometry 24, 204-213 (1996); T. Frgala et al., Mol Cancer Ther. 6:886-97, 2007). The system employs digital imaging microscopy to quantify viable cells, which selectively accumulate fluorescein diacetate to become brightly fluorescent. The system is capable of measuring cytotoxicity over a 4-5 log dynamic range by quenching the residual fluorescence of dead and dying cells with eosin Y and quantifying the total fluorescence of viable cells using digital thresholding. Measured fluorescence is directly proportionate to the number of viable cells. A comparison of the total fluorescence of a drug-treated cell population to the fluorescence of a similar number of untreated cells yields a survival fraction. In brief, 2000 to 10,000 cells/well (depending on size and growth rates) are replicate plated into 60 wells of a 96-well tissue culture plate in 0.1 mL of whole medium and allowed to attach overnight. Drug(s) are then added in 0.05 mL of whole medium to the final concentrations indicated. Drugs (fenretinide, and various chain length L-threo-sphinganines) were tested both as single agents and in a 3:1 ratio of fenretinide:sphinganine. C18-L-threo-sphinganine, or “safingol,” was also tested and results shown for reference. There are 12 wells treated per drug concentration. Twelve wells receive drug vehicle-only to the appropriate final concentration and serve as controls for the plate. Cells are incubated for 96 hours at 37° C. in ambient air with 5% CO2. Fluorescein diacetate is then added to each well in 0.05 mL media to a final concentration of 8 microgram/mL. Cells are incubated for a further 15 minutes at 37° C. and 0.03 mL of 0.5% eosin Y is added to each well. Total fluorescence of viable cells is then measured by digital imaging microscopy. Results were graphed as the ratio of the fluoresecence of drug-treated wells to non-drug treated control wells (i.e., Survival Fraction). All tests were performed at least twice. Representative results are shown.\n(§2) The Combination Index (CI) is a term to describe mathematical modeling of the pharmacologic effects on cytotoxicity (cell death) of two drugs in combination based. Cytotoxic “synergy” is defined as a cell death affect which is greater than would be expected from a simple product of the single agent cytotoxicities alone (i.e. an “additive” effect). By Chou-Talalay analysis, a CI<0.9 on a Fraction Affected (“Fa”, i.e. fraction of cells killed) indicates synergy, with smaller numbers indicating greater synergy; a CI of 0.9-1.1 signifies an additive or near-additive effect; and a CI>1.1 means the drug combination is antagonistic.\nFenretinide and L-threo-sphinganines tested in human lung adenocarcinoma (lung cancer) cell line, A-549."}, "[2]": {"tested_on": "A-2058 melanoma cell line", "assay": "DIMSCAN cytotoxicity, fenretinide + L-threo-sphinganines 3:1 (Example B11)", "conditions": "96 h", "procedure": "as §1, §2\nFenretinide and L-threo-sphinganines tested in human melanoma (skin cancer) cell line, A-2058."}, "[3]": {"tested_on": "PANC-1 pancreatic adenocarcinoma cell line", "assay": "DIMSCAN cytotoxicity, fenretinide + L-threo-sphinganines 3:1 (Example B18)", "procedure": "as §1, §2\nFenretinide and L-threo-sphinganines tested in human pancreatic adenocarcinoma (pancreas cancer) cell line, PANC-1."}, "[4]": {"tested_on": "SJ-GBM2 Glioblastoma multiforme cell line", "assay": "DIMSCAN cytotoxicity, fenretinide + L-threo-sphinganines 3:1 (Example B7)", "design": "key to CI (Combination Index): Chou-Talalay CI: <0.9 synergy, 0.9-1.1 additive, >1.1 antagonism", "conditions": "96 h", "procedure": "as §1, §2\nFenretinide and L-threo-sphinganines tested in human Glioblastoma multiforme (brain cancer) cell line, SJ-GBM2."}, "[5]": {"tested_on": "A-172 Glioblastoma multiforme cell line", "assay": "DIMSCAN cytotoxicity, fenretinide + L-threo-sphinganines 3:1 (Example B4)", "design": "key to CI (Combination Index): Chou-Talalay CI: <0.9 synergy, 0.9-1.1 additive, >1.1 antagonism", "conditions": "96 h", "procedure": "as §1, §2\nFenretinide and L-threo-sphinganines tested in human Glioblastoma multiforme (brain cancer) cell line, A-172."}, "[6]": {"tested_on": "RPMI-8226 Multiple Myeloma cell line", "assay": "DIMSCAN cytotoxicity, fenretinide + L-threo-sphinganines 3:1 (Example B2)", "conditions": "96 h", "procedure": "as §1, §2\nFenretinide and L-threo-sphinganines tested in human Multiple Myeloma (a cancer of the blood and bone marrow) cell line, RPMI-8226."}, "[7]": {"tested_on": "PC-3 prostate adenocarcinoma cell line", "assay": "DIMSCAN cytotoxicity, fenretinide + L-threo-sphinganines 3:1 (Example B17)", "procedure": "as §1, §2\nFenretinide and L-threo-sphinganines tested in human prostate adenocarcinoma (prostate cancer) cell line, PC-3."}, "[8]": {"tested_on": "T98G Glioblastoma multiforme cell line", "assay": "DIMSCAN cytotoxicity, fenretinide + L-threo-sphinganines 3:1 (Example B6)", "conditions": "96 h", "procedure": "as §1, §2\nFenretinide and L-threo-sphinganines tested in human Glioblastoma multiforme (brain cancer) cell line, T98G."}, "[9]": {"conditions": "4-HPR 1.5 μM + L-threo-sphinganine 0.5 μM"}, "[10]": {"conditions": "4-HPR 3 μM + L-threo-sphinganine 1 μM"}, "[11]": {"conditions": "4-HPR 6 μM + L-threo-sphinganine 2 μM"}, "[12]": {"conditions": "4-HPR 9 μM + L-threo-sphinganine 3 μM"}}}
{"smiles": "CCCCCCCCCCC[C@H](O)[C@@H](N)CO", "note": "[C14]", "values": [{"measurement": "CI (Combination Index)", "setting": "[1]; [9]", "result": 1}, {"measurement": "Fa (fraction affected)", "setting": "[1]; [9]", "result": 0.01}, {"measurement": "CI (Combination Index)", "setting": "[1]; [10]", "result": 1.0}, {"measurement": "Fa (fraction affected)", "setting": "[1]; [10]", "result": 0.02}, {"measurement": "CI (Combination Index)", "setting": "[1]; [11]", "result": 1.1}, {"measurement": "Fa (fraction affected)", "setting": "[1]; [11]", "result": 0.072}, {"measurement": "CI (Combination Index)", "setting": "[1]; [12]", "result": 0.5}, {"measurement": "Fa (fraction affected)", "setting": "[1]; [12]", "result": 0.461}, {"measurement": "CI (Combination Index)", "setting": "[2]; [9]", "result": 1.1}, {"measurement": "Fa (fraction affected)", "setting": "[2]; [9]", "result": 0.045}, {"measurement": "CI (Combination Index)", "setting": "[2]; [10]", "result": 1.2}, {"measurement": "Fa (fraction affected)", "setting": "[2]; [10]", "result": 0.088}, {"measurement": "CI (Combination Index)", "setting": "[2]; [11]", "result": 1.4}, {"measurement": "Fa (fraction affected)", "setting": "[2]; [11]", "result": 0.193}, {"measurement": "CI (Combination Index)", "setting": "[2]; [12]", "result": 1.3}, {"measurement": "Fa (fraction affected)", "setting": "[2]; [12]", "result": 0.650}, {"measurement": "CI", "setting": "[3]; [9]", "result": 3.2}, {"measurement": "Fa", "setting": "[3]; [9]", "result": 0.054}, {"measurement": "CI", "setting": "[3]; [10]", "result": 2.6}, {"measurement": "Fa", "setting": "[3]; [10]", "result": 0.176}, {"measurement": "CI", "setting": "[3]; [11]", "result": 2.1}, {"measurement": "Fa", "setting": "[3]; [11]", "result": 0.450}, {"measurement": "CI", "setting": "[3]; [12]", "result": 0.7}, {"measurement": "Fa", "setting": "[3]; [12]", "result": 0.883}, {"measurement": "CI (Combination Index)", "setting": "[4]; [9]", "result": 5.0}, {"measurement": "Fa (fraction affected)", "setting": "[4]; [9]", "result": 0.007}, {"measurement": "CI (Combination Index)", "setting": "[4]; [10]", "result": 1.2}, {"measurement": "Fa (fraction affected)", "setting": "[4]; [10]", "result": 0.209}, {"measurement": "CI (Combination Index)", "setting": "[4]; [11]", "result": 1.2}, {"measurement": "Fa (fraction affected)", "setting": "[4]; [11]", "result": 0.598}, {"measurement": "CI (Combination Index)", "setting": "[4]; [12]", "result": 1.4}, {"measurement": "Fa (fraction affected)", "setting": "[4]; [12]", "result": 0.820}, {"measurement": "CI (Combination Index)", "setting": "[5]; [9]", "result": 23.7}, {"measurement": "Fa (fraction affected)", "setting": "[5]; [9]", "result": 0.001}, {"measurement": "CI (Combination Index)", "setting": "[5]; [10]", "result": 3.8}, {"measurement": "Fa (fraction affected)", "setting": "[5]; [10]", "result": 0.065}, {"measurement": "CI (Combination Index)", "setting": "[5]; [11]", "result": 1.0}, {"measurement": "Fa (fraction affected)", "setting": "[5]; [11]", "result": 0.717}, {"measurement": "CI (Combination Index)", "setting": "[5]; [12]", "result": 0.5}, {"measurement": "Fa (fraction affected)", "setting": "[5]; [12]", "result": 0.958}, {"measurement": "CI (Combination Index)", "setting": "[6]; [9]", "result": 0.8}, {"measurement": "Fa (fraction affected)", "setting": "[6]; [9]", "result": 0.606}, {"measurement": "CI (Combination Index)", "setting": "[6]; [10]", "result": 1.1}, {"measurement": "Fa (fraction affected)", "setting": "[6]; [10]", "result": 0.747}, {"measurement": "CI (Combination Index)", "setting": "[6]; [11]", "result": 1.0}, {"measurement": "Fa (fraction affected)", "setting": "[6]; [11]", "result": 0.93}, {"measurement": "CI (Combination Index)", "setting": "[6]; [12]", "result": 0.4}, {"measurement": "Fa (fraction affected)", "setting": "[6]; [12]", "result": 0.994}, {"measurement": "CI", "setting": "[7]; [9]", "result": 0.7}, {"measurement": "Fa", "setting": "[7]; [9]", "result": 0.192}, {"measurement": "CI", "setting": "[7]; [10]", "result": 1.0}, {"measurement": "Fa", "setting": "[7]; [10]", "result": 0.283}, {"measurement": "CI", "setting": "[7]; [11]", "result": 1.3}, {"measurement": "Fa", "setting": "[7]; [11]", "result": 0.426}, {"measurement": "CI", "setting": "[7]; [12]", "result": 1.2}, {"measurement": "Fa", "setting": "[7]; [12]", "result": 0.634}, {"measurement": "CI (Combination Index)", "setting": "[8]; [9]", "result": 1.0}, {"measurement": "Fa (fraction affected)", "setting": "[8]; [9]", "result": 0.544}, {"measurement": "CI (Combination Index)", "setting": "[8]; [10]", "result": 1.6}, {"measurement": "Fa (fraction affected)", "setting": "[8]; [10]", "result": 0.602}, {"measurement": "CI (Combination Index)", "setting": "[8]; [11]", "result": 1.0}, {"measurement": "Fa (fraction affected)", "setting": "[8]; [11]", "result": 0.839}, {"measurement": "CI (Combination Index)", "setting": "[8]; [12]", "result": 0.5}, {"measurement": "Fa (fraction affected)", "setting": "[8]; [12]", "result": 0.941}]}
